Target: Smo (Homo sapiens, UniProt Q99835)
Test: Bodipy-Cyclopamine Binding Assay (confirmation assay), Hek293-SMO cells
Experimental: The confirmation assay is based on Bodipy-Cyclopamine Binding Assay:
Bodipy-Cyclopamine binding assay is a fluorescence based assay used to analysis the binding of Smo agonists. […] Bodipy-Cyclopamine was purchased from Toronto Research Chemicals and dissolved in methanol.
Hek293-SMO cells were plated in 96-well-plate (3340, Corning), the final cell concentration is 15,000 cells/well in 100 ul 1% serum-containing DMEM. The plates were incubated in 37 degree for additional 48 hours.
Hek293-SMO plate were washed with PBS and fixed with 4% paraformaldehyde (PFA)/PBS for 20 min at room temperature. After removing the PFA buffer, the cells were incubated with DAPI/PBS (5 ug/mL) for 10 min and followed by twice wash with PBS. After wash, cells were incubated for 2 h at room temperature in binding buffer (HBSS W/O Ca^2+ and Mg^2+) containing 100 nM bodipy-cyclopamine and compounds over a range of concentrations from 0-10 μM for competitive binding. After incubation, the cells were washed twice with the PBS. The fluorescence images were automatically captured and analyzed by a high content fluorescence imaging system (Arrayscan VTI, Thermo). GDC-0449 was used as reference compound to normalize the data. IC50 values were calculated with GraphPad Prism software using the sigmoidal dose-response function. The Ki was calculated following the Cheng-Prusoff equation, as Ki=IC50/[1+[bodipy-cyclopamine]/Kd)].

Sequence of Smo (Q99835 28-787): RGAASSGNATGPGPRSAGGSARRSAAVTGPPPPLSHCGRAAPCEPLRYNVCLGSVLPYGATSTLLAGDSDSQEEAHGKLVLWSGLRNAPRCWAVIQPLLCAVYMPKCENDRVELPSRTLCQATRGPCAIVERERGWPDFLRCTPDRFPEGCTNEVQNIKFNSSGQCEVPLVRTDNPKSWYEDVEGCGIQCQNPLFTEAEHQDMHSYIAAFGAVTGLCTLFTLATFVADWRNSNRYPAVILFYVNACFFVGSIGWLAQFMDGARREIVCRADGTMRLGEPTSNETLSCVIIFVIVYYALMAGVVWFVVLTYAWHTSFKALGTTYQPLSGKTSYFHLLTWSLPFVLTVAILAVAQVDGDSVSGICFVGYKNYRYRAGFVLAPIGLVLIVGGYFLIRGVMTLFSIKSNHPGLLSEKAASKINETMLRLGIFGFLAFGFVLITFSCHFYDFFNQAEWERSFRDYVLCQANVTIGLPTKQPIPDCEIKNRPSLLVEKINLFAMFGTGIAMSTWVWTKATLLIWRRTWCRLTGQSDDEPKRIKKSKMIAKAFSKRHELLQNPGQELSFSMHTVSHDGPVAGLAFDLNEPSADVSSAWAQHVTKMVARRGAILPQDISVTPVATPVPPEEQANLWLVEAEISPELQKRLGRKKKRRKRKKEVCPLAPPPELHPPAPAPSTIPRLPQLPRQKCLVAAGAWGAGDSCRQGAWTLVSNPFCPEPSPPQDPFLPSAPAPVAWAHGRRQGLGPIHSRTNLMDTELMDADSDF

SMILES	IC50 [nM]
Cc1cnc(-c2cc(N3CCc4nc(N5CC(C)NC(C)C5)ncc4C3=O)ncc2Cl)c(C)c1 (stereo not shown) [Compound A-101, 6-(5′-chloro-3,5-dimethyl-2,4′-bipyridin-2′-yl)-2-(3,5-dimethyl-piperazin-1-yl)-7,8-dihydro-pyrido[4,3-d]pyrimidin-5(6H)-one]	253
Cc1cnc(-c2cc(N3CCc4nc(N5CCCC5)sc4C3)ncc2Cl)c(C)c1 [Compound A-34, 5-(5′-chloro-3,5-dimethyl-2,4′-bipyridin-2′-yl)-2-(pyrrolidin-1-yl)-4,5,6,7-tetrahydro-thiazolo-[5,4-c]pyridine]	371
Cc1cnc(-c2cc(N3CCc4nc(N5CCOCC5)sc4C3)ncc2Cl)c(C)c1 [Compound A-29, 4-(5-(5′-chloro-3,5-dimethyl-[2,4′-bipyridin]-2′-yl)-4,5,6,7-tetrahydrothiazolo[5,4-c]pyridin-2-yl)morpholine]	169
Cc1cnc(-c2cc(N3CCn4cc(C(=O)N5CCC(O)CC5)nc4C3)ncc2Cl)c(C)c1 [Compound A-4, (7-(5′-chloro-3,5-dimethyl-2,4′-bipyridin-2′-yl)-5,6,7,8-tetrahydro-imidazo-[1,2-a]pyrazin-2-yl)(4-hydroxy-piperidin-1-yl)methanone]	639
CCNc1ncc2c(n1)CCN(c1cc(-c3ncc(C)cc3C)c(Cl)cn1)C2 [Compound A-51, 6-(5′-chloro-3,5-dimethyl-2,4′-bipyridin-2′-yl)-N-ethyl-5,6,7,8-tetrahydro-pyrido-[4,3-d]pyrimidin-2-amine]	16.8
Cc1cnc(-c2cc(N3CCc4nc(NC(=O)C(C)(C)C)sc4C3)ncc2Cl)c(C)c1 [Compound A-28, N-(5-(5′-chloro-3,5-dimethyl-2,4′-bipyridin-2′-yl)-4,5,6,7-tetrahydro-thiazolo-[5,4-c]pyridin-2-yl)pivalamide]	127
Cc1cnc(-c2cc(N3Cc4cnc(N5CC(C)NC(C)C5)nc4C(C)C3)ncc2Cl)c(C)c1 (stereo not shown) [Compound A-76, 6-(5′-chloro-3,5-dimethyl-2,4′-bipyridin-2′-yl)-2-(3,5-dimethyl-piperazin-1-yl)-8-methyl-5,6,7,8-tetrahydro-pyrido-[4,3-d]pyrimidine]	147

Next, values leading:

IC50 [nM]	SMILES
656	Cc1cnc(-c2cc(N3CCn4cc(C(=O)N5CC(C)NC(C)C5)nc4C3)ncc2Cl)c(C)c1 (stereo not shown) [Compound A-7, (7-(5′-chloro-3,5-dimethyl-2,4′-bipyridin-2′-yl)-5,6,7,8-tetrahydro-imidazo-[1,2-a]pyrazin-2-yl)(3,5-dimethyl-piperazin-1-yl)methanone]
> 1000	C=CC(=O)Nc1nc2c(s1)CN(c1cc(-c3ncc(C)cc3C)c(Cl)cn1)CC2 [Compound A-44, N-(5-(5′-chloro-3,5-dimethyl-2,4′-bipyridin-2′-yl)-4,5,6,7-tetrahydro-thiazolo-[5,4-c]pyridin-2-yl)acrylamide]
487	CCOC(=O)Nc1nc2c(s1)CN(c1cc(-c3ncc(C)cc3C)c(Cl)cn1)CC2 [Compound A-37, ethyl 5-(5′-chloro-3,5-dimethyl-2,4′-bipyridin-2′-yl)-4,5,6,7-tetrahydro-thiazolo-[5,4-c]pyridin-2-ylcarbamate]
> 1000	Cc1cnc(-c2cc(N3CCc4nc(N)ncc4C3)ncc2Cl)c(C)c1 [Compound A-89, 6-(5′-chloro-3,5-dimethyl-2,4′-bipyridin-2′-yl)-5,6,7,8-tetrahydropyrido-[4,3-d]pyrimidin-2-amine]
283	Cc1cnc(-c2cc(N3CCc4nc(N5CC(O)C5)ncc4C3)ncc2Cl)c(C)c1 [Compound A-72, 1-(6-(5′-chloro-3,5-dimethyl-2,4′-bipyridin-2′-yl)-5,6,7,8-tetrahydro-pyrido-[4,3-d]pyrimidin-2-yl)azetidin-3-ol]
104	Cc1cnc(-c2cc(N3CCc4nc(NC(=O)C(C)(C)C)ncc4C3)ncc2Cl)c(C)c1 [Compound A-93, N-(6-(5′-chloro-3,5-dimethyl-2,4′-bipyridin-2′-yl)-5,6,7,8-tetrahydropyrido-[4,3-d]pyrimidin-2-yl)pivalamide]

— patent publication US9695178B2, “6-(2-pyridyl)-7,8-dihydro-5H-pyrido[4,3-D]pyrimidine analogs as hedgehog pathway signaling inhibitors and therapeutic applications thereof” (Suzhou Yunxuan Yiyao Keji Youxian Gongsi, priority 2013, dated 2017)
